Data as given in patent publication US9717775B2 (priority 2006, dated 2017).
pIC50: −log10 of the molar value.

Legend:
α9α10 nAChR = α9α10 nAChR (Rattus norvegicus, UniProt P43144+Q9JLB5); format: cell-based
α6/α3β2β3 nAChR = format: cell-based, rat
α6/α3β4 nAChR = format: cell-based, rat

Chain of α9α10 nAChR (P43144 26-479 limits assumed): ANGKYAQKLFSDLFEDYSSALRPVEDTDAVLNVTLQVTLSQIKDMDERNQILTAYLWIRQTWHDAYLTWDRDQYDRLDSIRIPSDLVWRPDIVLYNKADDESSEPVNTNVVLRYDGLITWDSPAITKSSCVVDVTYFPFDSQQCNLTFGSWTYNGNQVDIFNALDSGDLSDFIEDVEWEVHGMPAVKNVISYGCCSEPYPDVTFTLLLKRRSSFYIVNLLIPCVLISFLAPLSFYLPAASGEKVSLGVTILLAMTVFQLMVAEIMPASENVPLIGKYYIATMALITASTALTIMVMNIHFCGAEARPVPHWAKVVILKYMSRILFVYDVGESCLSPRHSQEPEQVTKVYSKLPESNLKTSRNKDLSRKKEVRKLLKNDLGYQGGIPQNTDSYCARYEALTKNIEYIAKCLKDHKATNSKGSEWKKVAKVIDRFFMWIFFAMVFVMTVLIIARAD
Chain of α9α10 nAChR (Q9JLB5 25-447 limits assumed): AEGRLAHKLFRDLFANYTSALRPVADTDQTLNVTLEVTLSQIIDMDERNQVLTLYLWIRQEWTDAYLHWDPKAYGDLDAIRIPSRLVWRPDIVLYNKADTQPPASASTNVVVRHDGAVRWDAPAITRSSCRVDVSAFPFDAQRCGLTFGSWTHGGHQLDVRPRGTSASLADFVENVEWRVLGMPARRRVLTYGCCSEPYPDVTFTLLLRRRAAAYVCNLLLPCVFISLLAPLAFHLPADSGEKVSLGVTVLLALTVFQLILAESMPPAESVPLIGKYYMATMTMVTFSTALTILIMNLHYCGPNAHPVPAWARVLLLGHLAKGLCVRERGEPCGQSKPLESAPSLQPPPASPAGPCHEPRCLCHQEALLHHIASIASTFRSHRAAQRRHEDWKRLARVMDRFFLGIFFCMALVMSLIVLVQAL

Q: For α-conotoxin Vc1.1 [reference compound], which Hill slope (α9α10 nAChR) is on record?
A: 0.702±0.11

Q: What about the pIC50 (α9α10 nAChR) of the same substance?
A: 7.64

Q: What about the pIC50 (α6/α3β2β3 nAChR) of the same substance?
A: 6.84

Q: And the pIC50 (α6/α3β4 nAChR)?
A: 6.01
